Data reported in patent US7049340B1, “Neuroprotective and retinoprotective ophthalmologic drugs” (priority 1999, dated 2006).
Where two headings read alike, the source gives them in different places.

What was measured:
rabbit converting enzyme [1] = target: T1, rabbit converting enzyme (Oryctolagus cuniculus, UniProt P12822); details: cited from earlier work
T1 construct: host or cells: rabbit lung (only from the title of the cited Shapiro thesis)
T1 sequence (P12822 34-1310): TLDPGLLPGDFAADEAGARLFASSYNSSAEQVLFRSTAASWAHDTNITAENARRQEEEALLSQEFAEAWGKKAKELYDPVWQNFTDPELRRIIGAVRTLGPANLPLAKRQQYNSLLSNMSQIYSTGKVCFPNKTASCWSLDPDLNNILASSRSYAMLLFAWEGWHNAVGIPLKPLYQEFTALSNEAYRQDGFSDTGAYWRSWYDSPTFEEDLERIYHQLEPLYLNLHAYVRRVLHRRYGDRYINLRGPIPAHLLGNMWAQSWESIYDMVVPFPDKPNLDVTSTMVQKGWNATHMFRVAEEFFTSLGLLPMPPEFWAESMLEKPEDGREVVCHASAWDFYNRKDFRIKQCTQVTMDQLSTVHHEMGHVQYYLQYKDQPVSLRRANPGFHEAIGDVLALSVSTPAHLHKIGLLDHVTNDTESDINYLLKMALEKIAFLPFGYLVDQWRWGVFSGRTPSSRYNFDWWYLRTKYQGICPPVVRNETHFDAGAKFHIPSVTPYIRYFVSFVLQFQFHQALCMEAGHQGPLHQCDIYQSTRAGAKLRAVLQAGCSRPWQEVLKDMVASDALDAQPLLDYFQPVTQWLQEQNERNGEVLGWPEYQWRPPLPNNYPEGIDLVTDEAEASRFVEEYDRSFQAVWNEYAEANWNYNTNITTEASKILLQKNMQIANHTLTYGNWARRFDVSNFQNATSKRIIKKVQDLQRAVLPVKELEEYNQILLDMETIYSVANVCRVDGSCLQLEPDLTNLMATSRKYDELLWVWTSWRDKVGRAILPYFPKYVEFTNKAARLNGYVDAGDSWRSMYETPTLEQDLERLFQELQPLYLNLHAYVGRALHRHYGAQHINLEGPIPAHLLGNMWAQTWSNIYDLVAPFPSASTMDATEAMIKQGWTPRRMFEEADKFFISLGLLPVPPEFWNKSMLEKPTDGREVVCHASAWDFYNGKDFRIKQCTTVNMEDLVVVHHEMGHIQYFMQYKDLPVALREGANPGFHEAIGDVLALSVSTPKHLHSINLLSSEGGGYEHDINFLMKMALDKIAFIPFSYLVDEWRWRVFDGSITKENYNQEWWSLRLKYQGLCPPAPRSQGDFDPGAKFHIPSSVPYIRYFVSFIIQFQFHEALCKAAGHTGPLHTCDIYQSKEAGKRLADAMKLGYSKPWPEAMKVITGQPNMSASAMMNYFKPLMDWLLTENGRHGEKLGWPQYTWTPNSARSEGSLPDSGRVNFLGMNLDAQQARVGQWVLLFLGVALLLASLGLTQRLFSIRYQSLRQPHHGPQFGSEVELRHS

treated patients = assay: Visual function in treated patients, enalaprilat used instead of ramipril; type: in vivo, human; details: comparison enalaprilat vs ramiprilat
Excerpt: It should be remembered that the physico-chemical indications described above originate from the article by Vasmant et al., loc. cit.

rabbit converting enzyme [2] = target: T1, rabbit converting enzyme; assay: In vitro inhibition of rabbit converting enzyme (Bünning and Shapiro methods); type: biochemical
Excerpt: Doubtless, such drugs intervene in the CEI action mechanism, in that they act by preventing the transformation of angiotensin I to angiotensin II (vasoconstrictor) and the degradation of bradykinins (vasodilators). These CEIs thus cause vasodilation, which is exerted on arteries and on veins. Thus, they are mixed vasodilators. It should be remembered that the mechanism for the formation of the bond that can be formed between the inhibitor and the enzyme normally occurs in two phases, the first consisting of the formation of an inhibitor-enzyme complex by a competitive bond, which involves a reaction governed by a constant K1, and the second, consisting of a slow isomerisation of the inhibitor-enzyme complex, itself also governed by a reversible rate constant for this reaction, k4.
Comparison with captopril and enalaprilat” in Drug Research 1984; 34:1406–1410, and the doctoral thesis by Shapiro R. (Ph.D. Thesis, Harvard University Cambridge, Mass., 1983 “Activation and inactivation of rabbit pulmonary angiotensin converting enzyme”.

healthy subject = assay: General arterial pressure at doses that improve field of vision; type: in vivo, human; details: in vivo
Excerpt: Effective doses for producing effects in the ophtalmologic field are desirably lower than doses that would induce general arterial hypotension in a subject with normal pressure. Clearly, the doses that can be used can be higher in subjects with hypertension, although this is not necessary, since the desired effect is that obtained in the ophtalmologic field.

stability of enzyme complex relative to enalaprilat (rabbit converting enzyme [2]; from k4) | Ki relative to enalaprilat (rabbit converting enzyme [2]; printed as 'higher than with enalaprilat') | effect on arterial pressure of doses that improve field of vision (healthy subject) | Compound | constant k4 for the reversible isomerisation of the enzyme-inhibitor complex (rabbit converting enzyme [1]; 50 mM/l Hepes, 300 mmol/l NaCl, 1 micromol/l ZnCl2, pH 7.5) | Ki (rabbit converting enzyme [1]; in vitro, 50 mM/l Hepes, 300 mmol/l NaCl, 1 micromol/l ZnCl2, pH 7.5, read-out: equilibrium inhibition constant K) | improvement in visual function in treated patients (treated patients) | Ki (rabbit converting enzyme [1]; unit inferred, read-out: constant Ki) | constant k4 (rabbit converting enzyme [1]; unit not given)
 |  |  | C[C@H](N[C@@H](CCc1ccccc1)C(=O)O)C(=O)N1CCC[C@H]1C(=O)O [enalaprilat] | 1.1×10^−4 S1 | 0.05 nM | moderate improvement |  | 
six times more stable | 7 times | do not cause arterial hypertension | C[C@H](N[C@@H](CCc1ccccc1)C(=O)O)C(=O)N1[C@H](C(=O)O)C[C@@H]2CCC[C@@H]21 [ramiprilat] |  |  | incomparably better | 0.007 nM | 1.8×10^−5
